# From patent publication US11168095B2, “ASK1 inhibiting agents” (BIOGEN MA INC., priority 2017, dated 2021)
# Where two headings read alike, the source gives them in different places.
# Legend:
# ASK1/MAP3K5 = ASK1/MAP3K5 (Homo sapiens (Human), UniProt Q99683); experiment: ASK1/MAP3K5 assay by Reaction Biology Corp.; assay type: biochemical
# Experimental: ASK1/MAP3K5 was used as the protein kinase and 20 μM of myelin basic protein (MBP) and 10 μM ATP were used as the substrate.
# [1] = target: ASK1 T838 auto phosphorylation in HEK-293T cells (Homo sapiens (Human), UniProt Q99683); experiment: ASK1 (AUTO PHOS T838) assay, MSD format; assay type: cell-based
# Experimental: The plates were incubated at 37° C. overnight. Media on plates was changed to OPTI-MEM, serum free media and cells were transfected with 9 μg of ASK1-V5 tagged full length plasmid using Lipofectamine 2000 (Invitrogen) and the plates were incubated at 37° C. overnight. Cells were trypsinized, counted on Nexcellometer and plated into 96 well tissue culture plates with 100,000 cells/well and 200 μL media. Cells were incubated for 4 hr at 37° C. then ASK1 compounds were added using a HP 300e. Compounds were tested at 20 μM with 3 fold, 10 point dilution points then incubated for 1 hr at 37° C. A lysis buffer (Cell Signaling) was prepared with protease and phosphatase inhibitor and maintained at 4° C. until use. Media from cells was discarded and 120 μL of cold lysis buffer was added to the cells, the plate was shaken 4° C. for 1 hr. Lysate was mixed using Apricot liquid handler; aspirating up and down 16 times at high speed using 50 μL volume. […] Plates were then incubated on a plate shaker overnight at 4° C. Plates were washed 3× with MSD wash buffer and 50 μL of rabbit anti-pASK1 T838 antibody was added to the wells and incubated for 2 hr at room temperature on a plate shaker. Plates were then washed and 50 μL of goat anti-rabbit sulfa-tag (1:500 dilution) was added to wells, and incubated for 1 hr at room temperature on a plate shaker. […] Plates were immediately read on a MSD Instrument Reader where chemoluminecense signal was measured. Data was analyzed using Graph Pad or Genedata, the data was normalized and plotted, % activity versus log of compound concentration. The IC50 values were obtained from a 4 parameter fit.
# [2] = 20 μM myelin basic protein (MBP), 10 μM ATP
# [3] = HEK 293T cells transfected with ASK1-V5 full length plasmid, compounds 1 hr at 37° C., read-out: IC50
# Chain of ASK1 T838 auto phosphorylation in HEK-293T cells (Q99683 whole entry): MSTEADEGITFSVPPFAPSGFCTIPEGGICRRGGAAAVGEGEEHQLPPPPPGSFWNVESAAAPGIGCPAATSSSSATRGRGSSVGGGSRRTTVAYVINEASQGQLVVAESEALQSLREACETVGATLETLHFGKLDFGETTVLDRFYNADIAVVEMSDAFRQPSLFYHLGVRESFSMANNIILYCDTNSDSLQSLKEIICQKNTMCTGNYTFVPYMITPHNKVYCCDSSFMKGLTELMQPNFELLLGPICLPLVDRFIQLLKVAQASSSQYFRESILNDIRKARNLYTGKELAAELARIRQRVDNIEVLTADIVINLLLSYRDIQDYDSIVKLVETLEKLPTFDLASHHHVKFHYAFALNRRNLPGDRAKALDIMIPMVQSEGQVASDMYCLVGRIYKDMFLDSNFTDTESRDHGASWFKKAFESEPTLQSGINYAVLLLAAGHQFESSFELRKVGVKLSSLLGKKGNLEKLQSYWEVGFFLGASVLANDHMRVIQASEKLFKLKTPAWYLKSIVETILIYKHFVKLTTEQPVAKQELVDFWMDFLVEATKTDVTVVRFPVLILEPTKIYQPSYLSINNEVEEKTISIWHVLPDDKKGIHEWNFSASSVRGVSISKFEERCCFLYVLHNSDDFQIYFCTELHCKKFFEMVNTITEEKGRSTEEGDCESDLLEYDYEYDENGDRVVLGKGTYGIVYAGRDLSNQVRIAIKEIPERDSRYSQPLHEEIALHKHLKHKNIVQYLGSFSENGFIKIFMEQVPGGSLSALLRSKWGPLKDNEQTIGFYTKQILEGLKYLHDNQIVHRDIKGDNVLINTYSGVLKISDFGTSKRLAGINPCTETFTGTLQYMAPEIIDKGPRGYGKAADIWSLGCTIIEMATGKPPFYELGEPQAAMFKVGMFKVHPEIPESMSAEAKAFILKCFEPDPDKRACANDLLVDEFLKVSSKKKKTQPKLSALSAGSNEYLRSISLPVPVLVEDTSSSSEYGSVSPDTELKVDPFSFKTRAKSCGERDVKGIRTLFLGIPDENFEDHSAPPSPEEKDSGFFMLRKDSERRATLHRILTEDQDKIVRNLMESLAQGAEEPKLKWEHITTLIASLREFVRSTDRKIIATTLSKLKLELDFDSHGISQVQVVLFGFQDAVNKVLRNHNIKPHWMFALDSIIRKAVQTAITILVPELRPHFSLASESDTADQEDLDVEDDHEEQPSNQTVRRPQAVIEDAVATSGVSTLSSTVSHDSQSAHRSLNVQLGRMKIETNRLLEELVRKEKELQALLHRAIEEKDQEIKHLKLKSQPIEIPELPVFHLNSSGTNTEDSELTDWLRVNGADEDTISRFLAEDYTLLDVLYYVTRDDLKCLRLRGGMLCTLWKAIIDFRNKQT
# Chain of ASK1/MAP3K5 (Q99683 whole entry): as above
IC50 (ASK1/MAP3K5; [2]),"IC50 [1, 3]",SMILES,IC50 (ASK1/MAP3K5),IC50 [1]
< 0.1 µM,< 1 µM,"O=C1Nc2cccc(n2)-c2nncn2C/C=C/CCOc2ccccc21 [Example 175, (Z)-1^4H-6-oxa-3-aza-2(2,6)-pyridina-1(3,4)-triazola-5(1,2)-benzenacycloundecaphan-9-en-4-one]",–,–
< 0.1 µM,< 1 µM,"C[C@H]1CCCOc2cc(S(C)(=O)=O)c(Br)cc2C(=O)Nc2cccc(n2)-c2nncn21 [Example 119, (S)-5^5-Bromo-10-methyl-5^4-(methylsulfonyl)-1^4H-6-oxa-3-aza-2(2,6)-pyridina-1(3,4)-triazola-5(1,2)-benzenacyclodecaphan-4-one]",–,–
< 0.1 µM,< 1 µM,"O=C1Nc2cccc(n2)-c2nncn2CCCCOc2cc(F)c(-c3ccc(C4CC4)nc3)cc21 [Example 59, 5^5-(6-Cyclopropylpyridin-3-yl)-5^4-fluoro-1^4H-6-oxa-3-aza-2(2,6)-pyridina-1(3,4)-triazola-5(1,2)-benzenacyclodecaphan-4-one]",–,–
< 0.1 µM,< 1 µM,"CN1CCC(c2cc3c(cc2F)C(=O)Nc2cccc(n2)-c2nncn2CCCCO3)CC1 [Example 86, 5^5-Fluoro-5^4-(1-methylpiperidin-4-yl)-1^4H-6-oxa-3-aza-2(2,6)-pyridina-1(3,4)-triazola-5(1,2)-benzenacyclodecaphan-4-one]",–,–
< 0.1 µM,< 1 µM,"O=C1Nc2cccc(n2)-c2nncn2C/C=C\CCOc2cc(F)c(N3CCOCC3)cc21 [Example 181, (Z)-5^4-Fluoro-5^5-morpholino-1^4H-6-oxa-3-aza-2(2,6)-pyridina-1(3,4)-triazola-5(1,2)-benzenacycloundecaphan-9-en-4-one]",–,–
< 0.1 µM,< 1 µM,"C[C@@H]1CCCn2cnnc2-c2cccc(n2)NC(=O)c2cc(N3CCOCC3)ccc2O1 [Example 143, (R)-7-Methyl-5^5-morpholino-1^4H-6-oxa-3-aza-2(2,6)-pyridina-1(3,4)-triazola-5(1,2)-benzenacyclodecaphan-4-one]",–,–
< 0.1 µM,< 1 µM,"Cc1cc(C)n(-c2ccc3c(c2)C(=O)Nc2cccc(n2)-c2nncn2CCCCO3)n1 [Example 46, 5^5-(3,5-Dimethyl-1H-pyrazol-1-yl)-1^4H-6-oxa-3-aza-2(2,6)-pyridina-1(3,4)-triazola-5(1,2)-benzenacyclodecaphan-4-one]",–,–
< 0.1 µM,< 1 µM,"C[C@H]1CCOc2cc(F)c(Br)cc2C(=O)Nc2cccc(n2)-c2nncn2C1 [Example 124, (S)-5^5-Bromo-5^4-fluoro-9-methyl-1^4H-6-oxa-3-aza-2(2,6)-pyridina-1(3,4)-triazola-5(1,2)-benzenacyclodecaphan-4-one]",–,–
< 0.1 µM,< 1 µM,"O=C1Nc2cccc(n2)-c2nncn2CCCCOc2cc(F)c(C3=CCOCC3)cc21 [Example 67, 5^5-(3,6-Dihydro-2H-pyran-4-yl)-5^4-fluoro-1^4H-6-oxa-3-aza-2(2,6)-pyridina-1(3,4)-triazola-5(1,2)-benzenacyclodecaphan-4-one]",–,–
0.1 to 1 µM,1 to 10 µM,"C[C@@H]1CCOc2cc(F)c(Br)cc2C(=O)Nc2cccc(n2)-c2nncn2C1 [Example 125, (R)-5^5-Bromo-5^4-fluoro-9-methyl-1^4H-6-oxa-3-aza-2(2,6)-pyridina-1(3,4)-triazola-5(1,2)-benzenacyclodecaphan-4-one]",–,–
< 0.1 µM,< 1 µM,"O=C1Nc2cccc(n2)-c2nncn2C/C=C\CCOc2ccccc21 [Example 174, (E)-1^4H-6-Oxa-3-aza-2(2,6)-pyridina-1(3,4)-triazola-5(1,2)-benzenacycloundecaphan-9-en-4-one]",–,–
0.1 to 1 µM,1 to 10 µM,"O=C1Nc2cccc(n2)-c2nncn2CCCCOc2c(Br)cccc21 [Example 165, 5^3-Bromo-1^4H-6-oxa-3-aza-2(2,6)-pyridina-1(3,4)-triazola-5(1,2)-benzenacyclodecaphan-4-one]",–,–
< 0.1 µM,< 1 µM,"C[C@H]1CCCOc2cc(F)c(C3CCN(C)CC3)cc2C(=O)Nc2cccc(n2)-c2nncn21 [Example 107, (S)-5^4-Fluoro-10-methyl-5^5-(1-methylpiperidin-4-yl)-1^4H-6-oxa-3-aza-2(2,6)-pyridina-1(3,4)-triazola-5(1,2)-benzenacyclodecaphan-4-one]",–,–
< 0.1 µM,< 1 µM,"C[C@@H]1CCCn2cnnc2-c2cccc(n2)NC(=O)c2cc(-c3ccncc3)ccc2O1 [Example 145, (R)-7-Methyl-5^5-(pyridin-4-yl)-1^4H-6-oxa-3-aza-2(2,6)-pyridina-1(3,4)-triazola-5(1,2)-benzenacyclodecaphan-4-one]",–,–
< 0.1 µM,< 1 µM,"O=C1Nc2cccc(n2)-c2nncn2CCCCOc2ccc(-n3ccnc3)cc21 [Example 41, 5^5-(1H-Imidazol-1-yl)-1^4H-6-oxa-3-aza-2(2,6)-pyridina-1(3,4)-triazola-5(1,2)-benzenacyclodecaphan-4-one]",–,–
< 0.1 µM,< 1 µM,"C[C@@H]1CCCn2cnnc2-c2cccc(n2)NC(=O)c2cc(-c3cnn(CCN(C)C)c3)ccc2O1 [Example 147, (R)-5^5-(1-(2-(Dimethylamino)ethyl)-1H-pyrazol-4-yl)-7-methyl-1^4H-6-oxa-3-aza-2(2,6)-pyridina-1(3,4)-triazola-5(1,2)-benzenacyclodecaphan-4-one]",–,–
< 0.1 µM,< 1 µM,"Cc1nccn1-c1ccc2c(c1)C(=O)Nc1cccc(n1)-c1nncn1CCCCO2 [Example 43, 5^5-(2-Methyl-1H-imidazol-1-yl)-1^4H-6-oxa-3-aza-2(2,6)-pyridina-1(3,4)-triazola-5(1,2)-benzenacyclodecaphan-4-one]",–,–
< 0.1 µM,< 1 µM,"C[C@H]1CCCOc2cc(N3CCN(C)CC3)ccc2C(=O)Nc2cccc(n2)-c2nncn21 [Example 122, (S)-10-Methyl-5^4-(4-methylpiperazin-1-yl)-1^4H-6-oxa-3-aza-2(2,6)-pyridina-1(3,4)-triazola-5(1,2)-benzenacyclodecaphan-4-one]",–,–
< 0.1 µM,< 1 µM,"CN1CCn2ncc(-c3cc4c(cc3F)OCCCCn3cnnc3-c3cccc(n3)NC4=O)c2C1 [Example 65, 5^4-Fluoro-5^5-(5-methyl-4,5,6,7-tetrahydropyrazolo[1,5-a]pyrazin-3-yl)-1^4H-6-oxa-3-aza-2(2,6)-pyridina-1(3,4)-triazola-5(1,2)-benzenacyclodecaphan-4-one]",–,–
< 0.1 µM,< 1 µM,"O=C1Nc2cccc(n2)-c2nncn2CCCCOc2ccc(-c3cnn(C4COC4)c3)cc21 [Example 38, 5^5-(1-(Oxetan-3-yl)-1H-pyrazol-4-yl)-1^4H-6-oxa-3-aza-2(2,6)-pyridina-1(3,4)-triazola-5(1,2)-benzenacyclodecaphan-4-one]",–,–
< 0.1 µM,< 1 µM,"O=C1Nc2cccc(n2)-c2nncn2C/C=C\CCOc2cc(F)c(-c3ccncc3)cc21 [Example 180, (Z)-5^4-Fluoro-5^5-(pyridin-4-yl)-1^4H-6-oxa-3-aza-2(2,6)-pyridina-1(3,4)-triazola-5(1,2)-benzenacycloundecaphan-9-en-4-one]",–,–
< 0.1 µM,< 1 µM,"Cc1c(-c2cc3c(cc2F)OCCCCn2cnnc2-c2cccc(n2)NC3=O)cnn1C [Example 62, 5^5-(1,5-Dimethyl-1H-pyrazol-4-yl)-5^4-fluoro-1^4H-6-oxa-3-aza-2(2,6)-pyridina-1(3,4)-triazola-5(1,2)-benzenacyclodecaphan-4-one]",–,–
< 0.1 µM,< 1 µM,"C[C@@H]1CCCn2cnnc2-c2cccc(n2)NC(=O)c2cc(N3CCN(C)CC3)ccc2O1 [Example 141, (R)-7-Methyl-5^5-(4-methylpiperazin-1-yl)-1^4H-6-oxa-3-aza-2(2,6)-pyridina-1(3,4)-triazola-5(1,2)-benzenacyclodecaphan-4-one]",–,–
< 0.1 µM,< 1 µM,"C[C@H]1CCCn2cnnc2-c2cccc(n2)NC(=O)c2cc(N3CCOCC3)ccc2O1 [Example 142, (S)-7-Methyl-5^5-morpholino-1^4H-6-oxa-3-aza-2(2,6)-pyridina-1(3,4)-triazola-5(1,2)-benzenacyclodecaphan-4-one]",–,–
–,–,"C[C@H]1CCOc2cc(F)c(C#CC3(C)COC3)cc2C(=O)Nc2cccc(n2)-c2nncn2C1 [Example 134, (S)-5^4-Fluoro-9-methyl-5^5-((3-methyloxetan-3-yl)ethynyl)-1^4H-6-oxa-3-aza-2(2,6)-pyridina-1(3,4)-triazola-5(1,2)-benzenacyclodecaphan-4-one]",< 0.1 µM,< 1 µM
< 0.1 µM,< 1 µM,"CC(C)n1cc(-c2ccc3c(c2)C(=O)Nc2cccc(n2)-c2nncn2CCCCO3)cn1 [Example 36, 5^5-(1-Isopropyl-1H-pyrazol-4-yl)-1^4H-6-oxa-3-aza-2(2,6)-pyridina-1(3,4)-triazola-5(1,2)-benzenacyclodecaphan-4-one]",–,–
